Values joined by “and” are separate entries in the source; they are usually repeats but may differ in a detail not shown here. Equal entries are not always repeated. Where two headings read alike, the source gives them in different places.
Experiment: Phase 1 single dose pharmacokinetic study of eliglustat tartrate in severe renal impairment and matched normal renal function subjects (Example 3)
Format: in vivo, human
Details: for AUC / Cmax / AUC(0-inf) / AUC(0-t) / Vd/F / Tmax: human, 100 mg; for AUC: read-out: AUC, geometric mean
Description: A phase 1, open-label, 2-stage, pharmacokinetic and tolerability study of single dose eliglustat tartrate in subjects with renal impairment (RI) (mild, moderate, and severe) and subjects with normal renal function, matched to RI subjects by age, weight, and cytochrome P450 [CYP] 2D6 phenotype was carried out to study the effect of mild, moderate, and severe RI on the pharmacokinetics (PK) of eliglustat.
Methodology: A phase 1, open-label, 2-stage, pharmacokinetic and tolerability study of single dose eliglustat tartrate in subjects with renal impairment (RI) (mild, moderate, and severe) and subjects with normal renal function, matched to RI subjects by age, weight, and cytochrome P450 [CYP] 2D6 phenotype.
Approximately 32 subjects were planned to be enrolled in 2 stages: Stage 1 comprised of 8 subjects with severe RI and 8 subjects with normal renal function, matched by CYP2D6 phenotype, weight, and age. […] Stage 2 was to include 8 subjects with mild and 8 subjects with moderate RI. Each cohort was to enroll at least 6 CYP2D6 extensive metabolizers (EMs). The remaining 2 subjects were to be poor metabolizers (PMs), intermediate metabolizers (IMs) or EMs, enrolled according to the following preference: at least 20 subjects were to be screened for each cohort and if identified, up to 2 PMs were to be enrolled. If less than 2 PMs were identified, up to 2 IMs were to be enrolled for a total of 8 subjects. If less than 2 PMs and IMs were identified, up to 2 additional EMs were to be enrolled for a total of 8 subjects. Allowed concomitant medications included no more than one weak CYP3A inhibitor and one weak CYP2D6 inhibitor, alone or in combination.
CYP2D6 EMs and IMs were to receive a single 100 mg dose of eliglustat tartrate while CYP2D6 PMs were to receive a single 50 mg dose of eliglustat tartrate.
Normal renal function subjects: Male or female subjects, between 18 and 79 years, inclusive, body weight within 15% of the body weight of matched subject with RI, BMI between 18.0 and 37.0 kg/m^2 and a CrCl of >80 mL/min. Healthy subjects were also matched by age and CYP2D6 predicted phenotype based on genotype.
A single 100 mg capsule of eliglustat tartrate (equivalent to 84 mg of eliglustat) was to be administered to CYP2D6 EM or IM subjects with RI and matching healthy subjects.
Pharmacokinetics: Plasma eliglustat concentrations were used to determine the following PK parameters using noncompartmental methods: Maximum plasma concentration observed (Cmax), first time to reach Cmax (tmax), area under the plasma concentration versus time curve calculated using the trapezoidal method from time zero to the time corresponding to the last concentration above the limit of quantification, tlast (AUClast), area under the plasma concentration time curve extrapolated to infinity (AUC), terminal half-life associated with the terminal slope Xz (t1/2z), apparent total body clearance of a drug from plasma (CL/F), and apparent volume of distribution during the terminal phase (VZ/F).
Blood samples were collected at the following time points to assess plasma concentrations of eliglustat: predose, and 0.5, 1, 1.5, 2, 2.5, 3, 4, 6, 8, 10, 12, 24, and 36 hours postdose.
Eliglustat concentrations in plasma were determined using a validated liquid chromatography tandem mass spectrometry method with a lower limit of quantification (LLOQ) of 0.2 ng/mL.
Eliglustat PK parameters were summarized using descriptive statistics for each population group and for each CYP2D6 phenotype. For log-transformed Cmax, AUClast, AUC, t1/2z, CL/F, and Vz/F, the effect of severe RI on eliglustat PK parameters after a single dose of eliglustat tartrate was analyzed using a linear fixed effects model on CYP2D6 EM subjects. Inclusion of population, CYP3A weak inhibitor, age, and weight as covariate was selected manually, choosing the model with the lowest AlC value. After testing, the final model chosen were those with only population as fixed term. […]

[1] = CYP2D6 EM, healthy, N=7, single oral 100 mg eliglustat tartrate, plasma
[2] = CYP2D6 EM, severe RI, N=7, single oral 100 mg eliglustat tartrate, plasma
[3] = CYP2D6 IM, healthy, N=1, single oral 100 mg eliglustat tartrate, plasma
[4] = IM severe RI subject taking escitalopram and amlodipine
[5] = Severe RI vs Healthy, CYP2D6 EM subjects (7 severe RI and 7 healthy)

**Q.** Which “CL/F, geometric mean” value [1] does the source give for `CCCCCCCC(=O)N[C@H](CN1CCCC1)[C@H](O)c1ccc2c(c1)OCCO2` [eliglustat, N-((1R,2R)-1-(2,3-dihydrobenzo[b][1,4]dioxin-6-yl)-1-hydroxy-3-(pyrrolidin-1-yl)propan-2-yl)octanamide] here?
**A.** Its value is “(834) [55.2] L/h”.

**Q.** What about the “CL/F, mean ± SD” value [1] of the same molecule?
**A.** Its value is 963 ± 532 L/h.

**Q.** And the “t1/2z, geometric mean” value [1]?
**A.** Its value is “(8.39) [17.8] h”.

**Q.** What about the “t1/2z, mean ± SD” value [1] of the same molecule?
**A.** The value was 8.50 h and 8.50 ± 1.51 h.

**Q.** And the “tlast, median” value [1]?
**A.** Its value is 36.00 h.

**Q.** What about the “CL/F, geometric mean” value [2] of the same molecule?
**A.** The value was “(845) [39.2] L/h”.

**Q.** And the “CL/F, mean ± SD” value [2]?
**A.** The value was 903 ± 354 L/h.

**Q.** And the “t1/2z, geometric mean” value [2]?
**A.** Its value is “(6.51) [13.3] h”.

**Q.** What about the “t1/2z, mean ± SD” value [2] of the same molecule?
**A.** Its value is 6.56 h and 6.56 ± 0.876 h.

**Q.** What about the “tlast, median” value [2] of the same molecule?
**A.** The value was 36.00 h.

**Q.** What about the CL/F [3] of the same molecule?
**A.** Its CL/F is 151 L/h.

**Q.** And the t1/2z [3]?
**A.** Its t1/2z is 9.59 h.

**Q.** And the tlast [3]?
**A.** The tlast was 36.00 h.

**Q.** What about the tlast (CYP2D6 IM, severe RI, N=1, taking escitalopram and amlodipine, single oral 100 mg eliglustat tartrate, plasma) of the same molecule?
**A.** The tlast was 36.00 h.

**Q.** What about the “AUClast ratio, CYP2D6 IM with severe RI vs CYP2D6 EM with severe RI” value [4] of the same molecule?
**A.** The value was 35.2 fold.

**Q.** What about the “AUClast ratio, CYP2D6 IM with severe RI vs CYP2D6 IM healthy subject” value [4] of the same molecule?
**A.** Its value is 6.90 fold.

**Q.** What about the “AUClast ratio, CYP2D6 IM with severe RI vs healthy CYP2D6 EMs” value [4] of the same molecule?
**A.** The value was 32.1 fold.

**Q.** What about the “AUClast geometric mean ratio, point estimate” value [5] of the same molecule?
**A.** The value was 0.994.

**Q.** And the “CL/F geometric mean ratio, point estimate” value [5]?
**A.** The value was 1.014.

**Q.** What about the “Vz/F geometric mean ratio, point estimate” value [5] of the same molecule?
**A.** The value was 0.787.

**Q.** And the “t1/2z geometric mean ratio, point estimate” value [5]?
**A.** Its value is 0.776.

**Q.** What about the AUC (both sexes, plasma, oral, CYP2D6 EM, severe RI, coadministered weak CYP3A inhibitor amlodipine, N=5) of the same molecule?
**A.** The AUC was 98.3 ng·h/mL.

**Q.** And the Cmax (both sexes, plasma, oral, CYP2D6 EM, severe RI, coadministered weak CYP3A inhibitor amlodipine, N=5, read-out: Cmax, geometric mean)?
**A.** The Cmax was 10.6 ng/mL.

**Q.** What about the AUC (both sexes, plasma, oral, CYP2D6 EM, severe RI, eliglustat tartrate alone, N=2) of the same molecule?
**A.** Its AUC is 104 ng·h/mL.

**Q.** What about the Cmax (both sexes, plasma, oral, CYP2D6 EM, severe RI, eliglustat tartrate alone, N=2, read-out: Cmax, geometric mean) of the same molecule?
**A.** Its Cmax is 15.2 ng/mL.

**Q.** What about the AUC(0-inf) (both sexes, plasma, po, CYP2D6 EM, healthy, N=7, single oral 100 mg eliglustat tartrate, plasma, read-out: AUC (extrapolated to infinity), geometric mean) of the same molecule?
**A.** Its AUC(0-inf) is 101 ng·h/mL.

**Q.** And the AUC(0-inf) (both sexes, plasma, po, CYP2D6 EM, healthy, N=7, single oral 100 mg eliglustat tartrate, plasma, read-out: AUC (extrapolated to infinity), mean ± SD)?
**A.** Its AUC(0-inf) is 118 ± 71.1 ng·h/mL.

**Q.** What about the AUC(0-t) (both sexes, plasma, po, CYP2D6 EM, healthy, N=7, single oral 100 mg eliglustat tartrate, plasma, read-out: AUClast, geometric mean) of the same molecule?
**A.** Its AUC(0-t) is 96 ng·h/mL.

**Q.** And the AUC(0-t) (both sexes, plasma, po, CYP2D6 EM, healthy, N=7, single oral 100 mg eliglustat tartrate, plasma, read-out: AUClast, mean ± SD)?
**A.** Its AUC(0-t) is 112 ± 68.7 ng·h/mL.

**Q.** And the Cmax (both sexes, plasma, po, CYP2D6 EM, healthy, N=7, single oral 100 mg eliglustat tartrate, plasma, read-out: Cmax, geometric mean)?
**A.** The Cmax was 13.4 ng/mL.

**Q.** What about the Cmax (both sexes, plasma, po, CYP2D6 EM, healthy, N=7, single oral 100 mg eliglustat tartrate, plasma, read-out: Cmax, mean ± SD) of the same molecule?
**A.** The Cmax was 17.6 ± 13.2 ng/mL.

**Q.** What about the Vd/F (both sexes, plasma, po, CYP2D6 EM, healthy, N=7, single oral 100 mg eliglustat tartrate, plasma, read-out: Vz/F, geometric mean) of the same molecule?
**A.** The Vd/F was 10100 L.

**Q.** And the Vd/F (both sexes, plasma, po, CYP2D6 EM, healthy, N=7, single oral 100 mg eliglustat tartrate, plasma, read-out: Vz/F, mean ± SD)?
**A.** Its Vd/F is 11700 ± 6710 L.

**Q.** What about the Tmax (both sexes, plasma, po, CYP2D6 EM, healthy, N=7, single oral 100 mg eliglustat tartrate, plasma, read-out: tmax, median) of the same molecule?
**A.** The Tmax was 1.5 h.

**Q.** What about the Cmax (both sexes, plasma, po, CYP2D6 EM, severe RI, N=7 (5 taking amlodipine), single oral 100 mg eliglustat tartrate, plasma, read-out: Cmax, mean ± SD) of the same molecule?
**A.** The Cmax was 12.7 ± 4.85 ng/mL.

**Q.** And the AUC(0-inf) (both sexes, plasma, po, CYP2D6 EM, severe RI, N=7, single oral 100 mg eliglustat tartrate, plasma, read-out: AUC (extrapolated to infinity), geometric mean)?
**A.** Its AUC(0-inf) is 99.8 ng·h/mL.

**Q.** What about the AUC(0-inf) (both sexes, plasma, po, CYP2D6 EM, severe RI, N=7, single oral 100 mg eliglustat tartrate, plasma, read-out: AUC (extrapolated to infinity), mean ± SD) of the same molecule?
**A.** Its AUC(0-inf) is 107 ± 42.1 ng·h/mL.

**Q.** And the AUC(0-t) (both sexes, plasma, po, CYP2D6 EM, severe RI, N=7, single oral 100 mg eliglustat tartrate, plasma, read-out: AUClast, geometric mean)?
**A.** The AUC(0-t) was 95.5 ng·h/mL.

**Q.** And the AUC(0-t) (both sexes, plasma, po, CYP2D6 EM, severe RI, N=7, single oral 100 mg eliglustat tartrate, plasma, read-out: AUClast, mean ± SD)?
**A.** Its AUC(0-t) is 102 ± 41.7 ng·h/mL.

**Q.** And the Cmax (both sexes, plasma, po, CYP2D6 EM, severe RI, N=7, single oral 100 mg eliglustat tartrate, plasma, read-out: Cmax, geometric mean)?
**A.** Its Cmax is 11.8 ng/mL.

**Q.** What about the Vd/F (both sexes, plasma, po, CYP2D6 EM, severe RI, N=7, single oral 100 mg eliglustat tartrate, plasma, read-out: Vz/F, geometric mean) of the same molecule?
**A.** Its Vd/F is 7940 L.

**Q.** What about the Vd/F (both sexes, plasma, po, CYP2D6 EM, severe RI, N=7, single oral 100 mg eliglustat tartrate, plasma, read-out: Vz/F, mean ± SD) of the same molecule?
**A.** The Vd/F was 8480 ± 3190 L.

**Q.** And the Tmax (both sexes, plasma, po, CYP2D6 EM, severe RI, N=7, single oral 100 mg eliglustat tartrate, plasma, read-out: tmax, median)?
**A.** Its Tmax is 4 h.

**Q.** And the AUC(0-inf) (plasma, oral, CYP2D6 IM, healthy, N=1, single oral 100 mg eliglustat tartrate, plasma, read-out: AUC (extrapolated to infinity))?
**A.** Its AUC(0-inf) is 559 ng·h/mL.

**Q.** What about the AUC(0-t) (plasma, oral, CYP2D6 IM, healthy, N=1, single oral 100 mg eliglustat tartrate, plasma, read-out: AUClast) of the same molecule?
**A.** Its AUC(0-t) is 520 ng·h/mL.

**Q.** And the Cmax (plasma, oral, CYP2D6 IM, healthy, N=1, single oral 100 mg eliglustat tartrate, plasma, read-out: Cmax)?
**A.** Its Cmax is 54.7 ng/mL.

**Q.** What about the Vd/F (plasma, oral, CYP2D6 IM, healthy, N=1, single oral 100 mg eliglustat tartrate, plasma, read-out: Vz/F) of the same molecule?
**A.** The Vd/F was 2090 L.

**Q.** And the Tmax (plasma, oral, CYP2D6 IM, healthy, N=1, single oral 100 mg eliglustat tartrate, plasma, read-out: tmax)?
**A.** Its Tmax is 3 h.

**Q.** And the AUC(0-t) (plasma, oral, CYP2D6 IM, severe RI, N=1, taking escitalopram and amlodipine, single oral 100 mg eliglustat tartrate, plasma, read-out: AUClast)?
**A.** Its AUC(0-t) is 3590 ng·h/mL.

**Q.** What about the Cmax (plasma, oral, CYP2D6 IM, severe RI, N=1, taking escitalopram and amlodipine, single oral 100 mg eliglustat tartrate, plasma, read-out: Cmax) of the same molecule?
**A.** The Cmax was 220 ng/mL.

**Q.** And the Tmax (plasma, oral, CYP2D6 IM, severe RI, N=1, taking escitalopram and amlodipine, single oral 100 mg eliglustat tartrate, plasma, read-out: tmax)?
**A.** The Tmax was 4 h.

From US10888544B2, “Methods for treating Gaucher disease” (Genzyme Corporation, priority 2017, dated 2021)
